Key:
[1] = molecular target: 11-beta-hydroxysteroid dehydrogenase 1 (Mus musculus) (UniProt P50172); test: Inhibition of mouse 11betaHSD1 at 100 nM by scintillation proximity assay
[2] = molecular target: T1, 11-beta-hydroxysteroid dehydrogenase 1 (Homo sapiens, UniProt P28845); test: Inhibition of human 11betaHSD1 at 100 nM by scintillation proximity assay
Target sequence in this assay (P28845 whole entry, looked up): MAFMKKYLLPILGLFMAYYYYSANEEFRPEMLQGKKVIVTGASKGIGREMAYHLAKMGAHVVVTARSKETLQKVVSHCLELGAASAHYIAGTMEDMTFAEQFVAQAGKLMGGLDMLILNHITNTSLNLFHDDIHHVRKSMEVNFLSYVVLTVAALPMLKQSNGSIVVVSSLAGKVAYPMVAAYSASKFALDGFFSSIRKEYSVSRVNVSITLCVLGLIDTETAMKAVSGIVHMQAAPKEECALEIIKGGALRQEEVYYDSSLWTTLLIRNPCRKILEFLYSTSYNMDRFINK

[3] = Intrinsic clearance in human liver microsomes assessed as per mg of protein; format: ADME, Microsome; conditions: read-out: CLH
[4] = molecular target: T2, 11-beta-hydroxysteroid dehydrogenase 1 (Mus musculus, UniProt P50172); test: Inhibition of mouse 11betaHSD1 by scintillation proximity assay
[5] = Volume of distribution at steady state in BALB/c mouse; format: ADME, organism-based; conditions: in vivo, read-out: Vdss
[6] = Plasma concentration in BALB/c mouse at 30 mg/kg, ip administered 1 hr prior to prednisone addition measured after 2 mins post prednisone addition by LC/MS/MS analysis; format: ADME, organism-based; parameters: dose 30 mg/kg, route intraperitoneal
[7] = molecular target: T1, 11-beta-hydroxysteroid dehydrogenase 1; test: Inhibition of human 11betaHSD1 by scintillation proximity assay
Target sequence in this assay (P28845 whole entry): as the sequence (P28845 whole entry, looked up) above

Mus musculus [8] = test: Inhibition of 11betaHSD1 in ip dosed BALB/c mouse using prednisone as substrate assessed as reduction of prednisolone production administered 1 hr prior to substrate addition measured after 2 mins post substrate addition by LC/MS/MS analysis; format: functional, organism-based
[9] = molecular target: T2, 11-beta-hydroxysteroid dehydrogenase 1; test: Inhibition of mouse 11betaHSD1 in 3T3L1 cells assessed as conversion of [1,2-(N)3H]-cortisone to cortisol after 1 hr by liquid scintillation counter; format: cell-based, 3T3-L1
Mus musculus [10] = test: Inhibition of 11betaHSD1 in BALB/c mouse using prednisone as substrate assessed as reduction of prednisolone production at 30 mg/kg, ip administered 1 hr prior to substrate addition measured after 2 mins post substrate addition by LC/MS/MS analysis; format: functional; conditions: route intraperitoneal
Mus musculus [11] = test: Inhibition of 11betaHSD1 in BALB/c mouse using prednisone as substrate assessed as reduction of prednisolone production at 3 mg/kg, ip administered 1 hr prior to substrate addition measured after 2 mins post substrate addition by LC/MS/MS analysis; format: functional; conditions: route intraperitoneal
Mus musculus [12] = test: Inhibition of 11betaHSD1 in BALB/c mouse using prednisone as substrate assessed as reduction of prednisolone production at 10 mg/kg, ip administered 1 hr prior to substrate addition measured after 2 mins post substrate addition by LC/MS/MS analysis; format: functional; conditions: route intraperitoneal
Mus musculus [13] = test: Inhibition of 11betaHSD1 in BALB/c mouse using prednisone as substrate assessed as remaining prednisolone level at 30 mg/kg, ip administered 1 hr prior to substrate addition measured after 2 mins post substrate addition by LC/MS/MS analysis; format: functional; conditions: route intraperitoneal
[14] = Plasma concentration in BALB/c mouse at 10 mg/kg, ip administered 1 hr prior to prednisone addition measured after 2 mins post prednisone addition by LC/MS/MS analysis; format: ADME, organism-based; parameters: dose 10 mg/kg, route intraperitoneal
Mus musculus [15] = test: Inhibition of 11betaHSD1 in BALB/c mouse using prednisone as substrate assessed as remaining prednisolone level at 10 mg/kg, ip administered 1 hr prior to substrate addition measured after 2 mins post substrate addition by LC/MS/MS analysis; format: functional; conditions: route intraperitoneal
[16] = Plasma concentration in BALB/c mouse at 3 mg/kg, ip administered 1 hr prior to prednisone addition measured after 2 mins post prednisone addition by LC/MS/MS analysis; format: ADME, organism-based; parameters: dose 3 mg/kg, route intraperitoneal
[17] = molecular target: T3, 11-beta-hydroxysteroid dehydrogenase type 2 (Homo sapiens, UniProt P80365); test: Inhibition of human 11betaHSD2
T3 sequence (P80365 whole entry): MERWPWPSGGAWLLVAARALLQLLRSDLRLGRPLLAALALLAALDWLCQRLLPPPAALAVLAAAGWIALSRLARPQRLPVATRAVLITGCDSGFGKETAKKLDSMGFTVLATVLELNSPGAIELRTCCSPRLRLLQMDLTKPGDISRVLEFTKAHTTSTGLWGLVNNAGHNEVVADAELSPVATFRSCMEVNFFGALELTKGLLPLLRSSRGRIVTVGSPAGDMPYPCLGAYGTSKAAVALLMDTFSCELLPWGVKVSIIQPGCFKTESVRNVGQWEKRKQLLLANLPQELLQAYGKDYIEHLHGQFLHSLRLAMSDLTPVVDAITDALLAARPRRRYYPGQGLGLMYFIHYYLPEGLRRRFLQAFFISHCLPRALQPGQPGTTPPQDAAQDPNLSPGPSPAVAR

Mus musculus [18] = test: Inhibition of 11betaHSD1 in BALB/c mouse using prednisone as substrate assessed as remaining prednisolone level at 3 mg/kg, ip administered 1 hr prior to substrate addition measured after 2 mins post substrate addition by LC/MS/MS analysis; format: functional; conditions: route intraperitoneal
[19] = Oral bioavailability in BALB/c mouse at 5 mg/kg; format: ADME, organism-based; conditions: in vivo
[20] = Half life in BALB/c mouse at 1 mg/kg, iv; format: ADME, organism-based; parameters: dose 1 mg/kg, route intravenous; conditions: in vivo
[21] = AUC (0 to t) in BALB/c mouse at 5 mg/kg, ip; format: ADME, organism-based; parameters: dose 5 mg/kg, route intraperitoneal; conditions: plasma
Mus musculus [22] = species: Mus musculus; test: Clearance in BALB/c mouse; format: ADME, organism-based; conditions: in vivo
[23] = Bioavailability in BALB/c mouse at 5 mg/kg, ip; format: ADME, organism-based; conditions: in vivo

T2 sequence (P50172 whole entry): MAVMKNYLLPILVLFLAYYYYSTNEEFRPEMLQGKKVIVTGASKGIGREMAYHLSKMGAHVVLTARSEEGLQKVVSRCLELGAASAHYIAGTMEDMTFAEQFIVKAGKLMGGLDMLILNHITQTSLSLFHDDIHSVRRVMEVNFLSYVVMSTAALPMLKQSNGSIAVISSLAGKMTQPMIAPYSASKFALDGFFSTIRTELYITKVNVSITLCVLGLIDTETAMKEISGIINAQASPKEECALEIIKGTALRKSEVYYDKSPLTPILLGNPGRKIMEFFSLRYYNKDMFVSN
11-beta-hydroxysteroid dehydrogenase 1 (Mus musculus), sequence (P50172 whole entry, looked up): as the sequence (P50172 whole entry) above

Compound	inhibition [1] [%]	microsomal CLint [3] [µL/min/mg]	IC50 [4] [µM]	further results
CC(O)(c1ccc(S(=O)(=O)N2CCC[C@]2(C)C(=O)N[C@H]2C3CC4CC2C[C@](C#N)(C4)C3)cc1)C(F)(F)F (stereo not given in full)	9.5	–	–	–
Cc1c(Cl)cccc1S(=O)(=O)N1CCC[C@]1(C)C(=O)NC12CC3CC(CC(O)(C3)C1)C2	18	–	–	inhibition [2]: 35%
Cc1c(Cl)cccc1S(=O)(=O)N1CCC[C@]1(C)C(=O)NC1C2CC3CC(C2)CC1C3 (stereo not given in full)	–	499	0.064	–
COc1ccc(S(=O)(=O)N2CCC[C@]2(C)C(=O)N[C@H]2C3CC4CC2C[C@](O)(C4)C3)cc1OC	3	132	–	–
CO[C@H]1CC[C@H](NC(=O)[C@@]2(C)CCCN2S(=O)(=O)c2cccc(Cl)c2C)CC1	15	–	–	inhibition [2]: 37%
CC(=O)c1ccc(S(=O)(=O)N2CCC[C@]2(C)C(=O)N[C@H]2C3CC4CC2C[C@](O)(C4)C3)cc1	16	12	–	–
Cc1c(Cl)cccc1S(=O)(=O)N1CCC[C@@H]1C(=O)NC1CCCCC1	–	430	–	–
Cc1c(Cl)cccc1S(=O)(=O)N1CCC[C@]1(C)C(=O)NC1CCCCC1	9.2	140	–	–
C[C@]1(C(=O)N[C@H]2C3CC4CC2C[C@](O)(C4)C3)CCCN1S(=O)(=O)c1ccc(Br)s1	–	57	0.097	–
CC(O)(c1ccc(S(=O)(=O)N2CCC[C@]2(C)C(=O)N[C@H]2C3CC4CC2C[C@](O)(C4)C3)cc1)C(F)(F)F (stereo not given in full)	26	64	–	–
C[C@]1(C(=O)N[C@H]2C3CC4CC2C[C@](O)(C4)C3)CCCN1S(=O)(=O)c1cccs1	–	15	0.112	–
CC(C)(C)c1ccc(S(=O)(=O)N2CCC[C@]2(C)C(=O)N[C@H]2C3CC4CC2C[C@](O)(C4)C3)cc1	12	–	–	–
COC(=O)[C@]12CC3CC(C1)[C@@H](NC(=O)[C@@]1(C)CCCN1S(=O)(=O)c1ccc(C(C)(O)C(F)(F)F)cc1)C(C3)C2 (stereo not given in full)	14	–	–	–
C=CC[C@]1(C(=O)N[C@H]2C3CC4CC2C[C@](O)(C4)C3)CCCN1S(=O)(=O)c1cccc2cccnc12	–	–	0.087	inhibition [2]: 33%
C[C@]1(C(=O)N[C@H]2C3CC4CC2C[C@](O)(C4)C3)CCCN1S(=O)(=O)c1ccc(C#N)cc1Cl	–	134	0.146	–
C[C@]1(C(=O)N[C@H]2C3CC4CC2C[C@](O)(C4)C3)CCCN1S(=O)(=O)c1cccnc1	17	55	–	–
C[C@]1(C(=O)N[C@H]2C3CC4CC2C[C@](O)(C4)C3)CCCN1S(=O)(=O)c1cccc2cccnc12	–	51	0.011	Vd [5]: 0.63 L/kg; concentration at 62 min [6]: 94 ng/mL; IC50 [7]: 0.0077 µM; inhibition (Mus musculus [8]): Dose-dependent effect; IC50 [9]: 0.011 µM; inhibition in vivo at 30 mg/kg (Mus musculus [10]): 89%; inhibition in vivo at 3 mg/kg (Mus musculus [11]): 34%; inhibition in vivo at 10 mg/kg (Mus musculus [12]): 71%; Activity (Mus musculus [13]): 11%; concentration at 2 min [14]: 80 ng/mL; Activity (Mus musculus [15]): 29%; concentration at 2 min [16]: 28 ng/mL; IC50 [17]: > 10 µM; Activity (Mus musculus [18]): 66%; bioavailability [19]: 3%; half-life [20]: 14 min; AUC(0-t) [21]: 939 ng·h/mL; clearance (Mus musculus [22]): 60 mL/min/kg; bioavailability [23]: 33%
Cc1c(Cl)cccc1S(=O)(=O)N1CCC[C@]1(C)C(=O)N[C@H]1CC[C@H](O)CC1	13	–	–	–
Cc1c(Cl)cccc1S(=O)(=O)N1CCC[C@@]1(C)C(=O)N[C@H]1C2CC3CC1C[C@](O)(C3)C2	–	–	0.063	IC50 [7]: 0.0031 µM
Cc1c(Cl)cccc1S(=O)(=O)N1CCC[C@]1(C)C(=O)N[C@H]1C2CC3CC1C[C@](O)(C3)C2	–	106	0.0013	Vd [5]: 0.51 L/kg; IC50 [7]: 0.0001 µM; IC50 [9]: 0.121 µM; IC50 [17]: 2.2 µM; bioavailability [19]: 9.1%; half-life [20]: 14 min; AUC(0-t) [21]: 597 ng·h/mL; clearance (Mus musculus [22]): 90 mL/min/kg; bioavailability [23]: 63%
CC[C@]1(C(=O)N[C@H]2C3CC4CC2C[C@](O)(C4)C3)CCCN1S(=O)(=O)c1cccc2cccnc12	–	–	0.164	–
C[C@]1(C(=O)N[C@H]2C3CC4CC2C[C@](O)(C4)C3)CCCN1S(=O)(=O)c1ccc(-c2ccccc2)cc1	37	87	–	–
C[C@]1(C(=O)N[C@H]2C3CC4CC2C[C@](O)(C4)C3)CCCN1S(=O)(=O)c1ccccc1C#N	–	–	0.125	–
COC(=O)[C@H]1CC2COCC(C1)[C@H]2NC(=O)[C@@]1(C)CCCN1S(=O)(=O)c1cccc(Cl)c1C	33	–	–	–
CN(C)c1cccc2c(S(=O)(=O)N3CCC[C@]3(C)C(=O)N[C@H]3C4CC5CC3C[C@](O)(C5)C4)cccc12	31	148	–	–

Reference: ChEMBL document CHEMBL2150908, “Discovery of 2-Alkyl-1-arylsulfonylprolinamides as 11β-Hydroxysteroid Dehydrogenase Type 1 Inhibitors” (ACS Med Chem Lett, 2012)
